The source of these data is patent US20240122212A1 (SUNTORY HOLDINGS LIMITED, priority 2020, published 2024).

The conditions of experiment [1]: sucrose per unit concentration Brix 1 = 1, cited from earlier work.
Experiment [2] deals with T1, sweet taste receptor (T1R2/T1R3) (Homo sapiens, UniProt Q7RTX0+Q8TE23).
T1 construct: endogenous in cells; host or cells: taste cells in the mouths of 3 trained human panelists (in vivo spitting test)
T1 sequence (Q8TE23 20-839): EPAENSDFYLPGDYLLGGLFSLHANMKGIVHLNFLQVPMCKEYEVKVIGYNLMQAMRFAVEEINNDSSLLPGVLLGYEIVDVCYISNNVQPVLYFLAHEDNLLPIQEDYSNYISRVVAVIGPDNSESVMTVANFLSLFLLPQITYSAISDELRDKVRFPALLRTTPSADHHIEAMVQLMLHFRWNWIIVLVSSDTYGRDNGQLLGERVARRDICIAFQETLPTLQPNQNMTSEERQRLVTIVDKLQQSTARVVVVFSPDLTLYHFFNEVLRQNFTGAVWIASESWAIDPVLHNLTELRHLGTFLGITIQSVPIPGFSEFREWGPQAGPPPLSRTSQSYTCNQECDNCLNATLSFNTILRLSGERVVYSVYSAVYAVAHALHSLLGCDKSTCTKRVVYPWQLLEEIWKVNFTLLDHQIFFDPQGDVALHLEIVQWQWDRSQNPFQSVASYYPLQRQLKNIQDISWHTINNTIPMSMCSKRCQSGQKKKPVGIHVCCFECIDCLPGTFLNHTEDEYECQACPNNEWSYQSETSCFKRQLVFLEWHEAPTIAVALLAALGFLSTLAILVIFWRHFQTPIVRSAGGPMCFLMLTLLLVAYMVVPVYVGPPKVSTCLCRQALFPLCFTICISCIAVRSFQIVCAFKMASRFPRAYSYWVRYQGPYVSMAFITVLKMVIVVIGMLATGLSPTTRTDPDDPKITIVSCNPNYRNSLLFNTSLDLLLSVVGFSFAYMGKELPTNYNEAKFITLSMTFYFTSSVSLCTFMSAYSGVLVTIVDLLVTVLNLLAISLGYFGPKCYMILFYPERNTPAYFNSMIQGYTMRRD
T1 sequence (Q7RTX0 21-852): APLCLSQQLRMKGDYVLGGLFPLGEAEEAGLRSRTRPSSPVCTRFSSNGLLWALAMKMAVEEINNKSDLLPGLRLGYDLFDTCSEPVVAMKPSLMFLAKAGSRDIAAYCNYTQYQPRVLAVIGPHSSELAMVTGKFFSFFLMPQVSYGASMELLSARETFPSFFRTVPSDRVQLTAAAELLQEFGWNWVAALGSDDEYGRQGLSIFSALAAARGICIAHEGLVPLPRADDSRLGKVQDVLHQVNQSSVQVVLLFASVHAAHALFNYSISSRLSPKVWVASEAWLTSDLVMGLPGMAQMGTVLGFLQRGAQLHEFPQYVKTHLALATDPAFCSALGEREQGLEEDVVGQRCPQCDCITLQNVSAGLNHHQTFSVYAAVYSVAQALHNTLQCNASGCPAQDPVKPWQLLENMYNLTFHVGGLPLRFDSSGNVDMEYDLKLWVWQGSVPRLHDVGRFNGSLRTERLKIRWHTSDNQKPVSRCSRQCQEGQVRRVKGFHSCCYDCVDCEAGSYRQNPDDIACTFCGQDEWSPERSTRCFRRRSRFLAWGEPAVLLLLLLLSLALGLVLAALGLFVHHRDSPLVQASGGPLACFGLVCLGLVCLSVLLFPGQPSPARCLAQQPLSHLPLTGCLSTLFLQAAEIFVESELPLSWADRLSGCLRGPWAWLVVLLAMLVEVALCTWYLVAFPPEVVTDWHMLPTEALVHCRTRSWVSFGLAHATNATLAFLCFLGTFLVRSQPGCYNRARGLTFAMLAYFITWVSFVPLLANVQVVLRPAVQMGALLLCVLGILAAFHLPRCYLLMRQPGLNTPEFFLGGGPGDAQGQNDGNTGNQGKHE
Nature of the experiment: Sensory evaluation of sweetness intensity (VAS) in the co-presence of sweet taste receptor inhibitor lactisole (Example 5). The format is in vivo. The following applies: for Sweetness intensity residual ratio (%) with addition of 100 ppm lactisole: lactisole-free solution = 100%, sucrose 8 w/v %, sucralose 149 ppm, D- or L-arabinose 13.3 w/v %, VAS, average of n=3. An excerpt:
Whether or not a certain sweet substance can trigger a sweetness response even if a sweetness response through the sweet taste receptor T1R2/T1R3 is inhibited may be determined by, for instance, measuring, by sensory evaluation or cell assay, the sweetness intensity of a solution (control solution), in which only the above sweet substance has been dissolved, and the sweetness intensity (remaining sweetness intensity) of a solution (test solution), in which a sweet taste receptor T1R2/T1R3 inhibitor (e.g., lactisole, gymnemic acid) is added for inhibiting a sweetness response through the sweet taste receptor T1R2/T1R3 to the control solution; and by comparing the sweetness intensity of the control solution and the sweetness intensity of the test solution.
The evaluation was carried out by those (3 persons) who received sensory trainings as panelists. […] Additionally, solutions having the same composition as sample solutions 1, 2, 3, and 4 except that lactisole was not added were used as control solutions 1, 2, 3, and 4. The sensory evaluation was carried out by spitting test. The sweetness intensity was rated by the VAS scale and calculated with the intensity of a solution to which lactisole was not added being 100% and the sweetness intensity of a solution to which lactisole was added as a relative value (%). The sweetness inhibitory effect by lactisole was verified by this.

The nature of experiment [3]: Degree of sweetness relative to sucrose. Conditions: value used to design the sample solutions of Example 5. An excerpt:
The “sweetness intensity” means an intensity of sweetness of a substance. […] A numerical value obtained by multiplying the degree of sweetness by a concentration Brix value of glucose is the sweetness intensity of glucose in terms of sucrose. Thus, when a concentration of glucose in terms of sucrose is Brix 1.5, the sweetness intensity of glucose is 0.65×1.5=0.975. The sweetness intensity of a sweetener in terms of sucrose can be calculated from a degree of sweetness shown in the following table or a value of a known degree of sweetness.
For example, when the sweetness intensity of sucrose per unit concentration Brix 1 is defined as a degree of sweetness of 1, a degree of sweetness of rebaudioside D is about 200 to 250 (median value 225), a degree of sweetness of rebaudioside M is about 200 to 260 (median value 230), a degree of sweetness of rebaudioside B is about 325, a degree of sweetness of rebaudioside A is about 200 to 300 (median value 250), a degree of sweetness of rebaudioside N is about 200 to 250 (median value 225), a degree of sweetness of rebaudioside O is about 200 to 250 (median value 225), a degree of sweetness of rebaudioside E is about 70 to 80 (median value 75), a degree of sweetness of a Luo han guo extract (containing 40% of Mog V) is about 110 to 150 (median value 130), a degree of sweetness of mogroside V is about 240 to 300 (median value 270), and a degree of sweetness of thaumatin is about 2,000, and a degree of sweetness of brazzein is about 500 to 2,000 (median value 1,250). The numerical value obtained by multiplying these degrees of sweetness by a concentration (w/v % (considered to be the same as w/w % in the case of a beverage)) of the high-intensity sweetener in a fruit juice beverage is a sweetness intensity of the high-intensity sweetener. The relative ratio in degrees of sweetness of various sweeteners to the degree of sweetness of 1 of sucrose can be determined from a known sugar sweetness conversion table, and the like. In the present description, when a degree of sweetness is shown in a numerical value range, the median value may be used. However, a sweetener having different values in a degree of sweetness by literatures, a relative ratio in a degree of sweetness to the degree of sweetness of 1 of sucrose can be defined by a sensory test. Examples of such a sensory test include a method in which samples were prepared by adding sucrose having a sweetness intensity of Brix 3.0 to 5.0 in 0.5 increments to pure water, and of which a sucrose-added sample having a sweetness intensity equal to an aqueous solution of a sweetener in a predetermined concentration is selected.
Additionally, for a sweetener with a variable degree of sweetness as a sweetness intensity increases, degrees of sweetness in different concentrations are actually measured and plotted whereby a degree of sweetness in a predetermined concentration may be calculated from the obtained approximate curve.

Experiment [4] can be described thus: Basic taste quality sensory evaluation by trained panelists, spitting test, against 6% sucrose control (Example 1). The format is in vivo, human. The following applies: scale −3 to 3, 0 = no difference from 6% sucrose control; D-allulose 8.57 w/v %, D-arabinose 10 w/v % in pure water; 4 panelists. As for the experimental part:
In each evaluation item, the rating on a scale of −3 point to 3 point was performed, with the case where there is no difference from the control solution being 0. Quicker in sweetness onset, higher sweetness intensity, shorter lingering sweet aftertaste, lower bitterness intensity, and shorter lingering bitter aftertaste compared to the control were rated near 3 points. Slower in sweetness onset, lower sweetness intensity, longer lingering sweet aftertaste, higher bitterness intensity, and longer lingering bitter aftertaste compared to the control were rated near −3 points. That is, the closer to 0 point, the closer to the control. The evaluation was carried out by those (4 persons) who received sensory trainings as panelists by spitting test. The amount of a sweet substance contained in each sample solution was adjusted to be equal to the control solution on the calculation. […] The energy (kcal/100 ml) was calculated from the amount of the sweetener added.

Where two headings read alike, the source gives them in different places.

Consider `O=C[C@H](O)[C@H](O)[C@H](O)[C@H](O)CO` [Allose], for which the Degree of sweetness in experiment [1] (Table 1) was 0.8.

Regarding `O=C[C@H](O)[C@@H](O)[C@@H](O)CO` [L-Arabinose], the “remaining sweetness intensity when 100 ppm of lactisole was added, compared with sucrose” value in experiment [2] (100 ppm lactisole) is “equal to or more than that of sucrose”. The “Sweetness intensity residual ratio (%) with addition of 100 ppm lactisole” value (“Sweetness intensity residual ratio (%)” below) in experiment [2] is listed as 34.43%. Further, in experiment [3], the “sweetness intensity, times as much as that of sucrose” value was 0.6 times.

Take `OC[C@H]1O[C@H](O[C@H]2[C@H](O)[C@@H](O)[C@H](O)O[C@@H]2CO)[C@H](O)[C@@H](O)[C@@H]1O` [Maltose]: the Degree of sweetness in experiment [1] (Table 1) was 0.4.

Take `OC[C@H]1O[C@H](O[C@]2(CCl)O[C@H](CCl)[C@@H](O)[C@@H]2O)[C@H](O)[C@@H](O)[C@H]1Cl` [Sucralose]: in experiment [2], the “Sweetness intensity residual ratio (%)” value was determined as 8.99%. Moreover, in experiment [3], the “sweetness intensity, times as much as that of sucrose” value is reported as 538.54 times.

For the molecule `OC[C@H]1O[C@@](CO)(O[C@H]2O[C@H](CO)[C@@H](O)[C@H](O)[C@H]2O)[C@@H](O)[C@@H]1O` [Sucrose], the “Sweetness intensity residual ratio (%)” value in experiment [2] is recorded as 29.05%. In experiment [4], the Bitterness intensity came out at 0 point, the Lingering bitter aftertaste is 0 point, the Lingering sweet aftertaste is 0 point and the “Quickness in sweetness onset” value is on record as 0 point. In experiment [4], this molecule had a Sweetness intensity of 0 point. Also, in experiment [1] (Table 1), the Degree of sweetness was 1.

For the molecule `O=C(CO)[C@@H](O)[C@@H](O)[C@H](O)CO` [Tagatose], in experiment [1] (Table 1), the Degree of sweetness was 0.9.

Turning to rebaudioside B, the Degree of sweetness entry in experiment [1] (high-intensity sweeteners) was “about 325”.

Take thaumatin: the Degree of sweetness entry in experiment [1] (high-intensity sweeteners) is “about 2,000”.
